Measurements published in publication PMC7766758, “Furan-Conjugated Tripeptides as Potent Antitumor Drugs” (Biomolecules, 2020).
Converted amounts (≈) assume the structure as drawn. “Also recorded” adds a separate entry of the source. Like-named read-outs stand apart in the source and are kept apart here. Square brackets hold non-standard residues; d marks the D form. Side chains are listed from the residue outwards. Peptide text beside a SMILES is read from it. * marks the point of attachment. 2Nal = N[C@@H](Cc1ccc2ccccc2c1)C(=O)O; 2Furoyl = O=C(c1ccco1)*

How the values were obtained:
[1] = tested on: human cervical cancer cells HeLa; assay: Anti-proliferative assay (MTT or resazurin), HeLa; assay type: cell-based; conditions: for IC50 ± SD (µg/mL), proliferation of HeLa cells / IC50: 48 h
Experimental: The anti-proliferative effect of peptides was tested using various normal and cancer cells. Human cancer cells used were human cervical cancer cells HeLa (ATCC® CCL-2), and human breast cancer cells MCF-7 (ATCC® HTB22) and MDA-MB-231 (ATCC® HTB-26). Normal cells used were NIH-3T3 (ATCC® CRL-1658), human normal endothelial cells (human umbilical vein endothelial cells, HUVEC) (ECACC, Sigma-Aldrich, Lyon, France), and human lung fibroblasts IMR-90 (ATCC® CCL186). NIH-3T3, HeLa, IMR-90, MDA-MB-231, and MCF-7 cells were grown in DMEM supplemented with 10% fetal bovine serum (FBS), 1% L-glutamine, and 1% antibiotics (all from Invitrogen (Carlsbad, CA, USA)). HUVEC cells were cultured in specific medium (endothelial cell growth medium from Sigma Aldrich, Lyon, France). Cells were routinely grown on 25 cm^2 flasks. For anti-proliferative assay, cells were detached from flasks using a trypsin-EDTA solution (from Thermofisher, Illkirch-Graffenstaden, France). After counting using a Malassez chamber, cells were diluted in appropriate culture media and seeded into 96-well cell culture plates (Greiner bio-one, Paris, France) at approximately 6000 cells/well. Cells were then treated with increasing concentration of conjugates diluted in appropriate medium. Doxorubicin was used as positive control. After 48 h medium was aspirated and the number of viable cells was colorimetrically measured as previously described. Briefly, after exposure to increasing concentrations of conjugates or doxorubicin for 48 h, cell viability was measured using the standard MTT or resazurin assay. For the MTT assay, the supernatant was discarded and 50 µL of 0.5 mg/mL MTT dye was then added to each well and plates were further incubated for 4 h at 37 °C. The MTT was aspirated and 100 µL of DMSO was then added to each well. The extent of MTT reduction to formazan in cells was calculated by measuring the absorbance at 540 nm, using a spectrophotometer (Spectra Max plus, Molecular Devices, CA, USA). For the resazurin assay, the supernatant was discarded and 100 µL of resazurin solution (from Sigma Aldrich, Lyon, France) was added to each well. After 4 h of incubation at 37 °C, fluorescence associated to resazurin biotransformation by live cells was measured using spectrofluorometer (excitation 530 nm/emission 590 nm). In both cases, the antiproliferative activity was recorded as concentration causing 50% growth inhibition (IC50). Experiment was performed in triplicate (n = 3).

HeLa cells [2] = assay: Rhodamine 123 and propidium iodide staining assay; assay type: cell-based, human
Experimental: As mentioned above, HeLa cells were grown in DMEM medium and seeded 3000 cells/well into 96-well plates. A stock solution of rhodamine 123 (Sigma-Aldrich, St Louis, MO, USA) and prodidium iodide (Sigma-Aldrich, St Louis, MO, USA) at concentrations of 10 and 1 mg/mL were prepared in pure DMSO and water, respectively.
The next day, 1 mL of the fresh media with 2% FBS was made, in which rhodamine 123 and propidium iodide dyes were added to make final concentrations of 10 and 5 µg/mL, respectively. Compounds 4, 4a, and 4b at four different concentrations (10, 20, 30, and 40 µg/mL) were mixed with 1 mL of this media. Old media from the plates were aspirated from each well and 200 µL of fresh media containing compounds, rhodamine 123, and PI dye were added in their respective wells in triplicate and incubated at 37 °C in a 5% CO2 incubator. After 1 and 2 h incubation, media was aspirated from the wells and washed with PBS. These cells were visualized for rhodamine 123 and PI dye staining in a Nikon Eclipse TE2000-U fluorescence microscope at 200× magnification in FITC and TXR filters respectively. Images of cells at the same location for both dyes were captured. Rhodamine 123 and PI staining give green and red fluorescence, respectively. These two different colored images were then merged with one another using ImageJ software (NIH, Bethesda, MD, USA).

[3] = tested on: IMR-90 (normal human fibroblasts)
Experimental: (§1) The anti-proliferative effect of peptides was tested using various normal and cancer cells. […] Normal cells used were NIH-3T3 (ATCC® CRL-1658), human normal endothelial cells (human umbilical vein endothelial cells, HUVEC) (ECACC, Sigma-Aldrich, Lyon, France), and human lung fibroblasts IMR-90 (ATCC® CCL186). NIH-3T3, HeLa, IMR-90, MDA-MB-231, and MCF-7 cells were grown in DMEM supplemented with 10% fetal bovine serum (FBS), 1% L-glutamine, and 1% antibiotics (all from Invitrogen (Carlsbad, CA, USA)). HUVEC cells were cultured in specific medium (endothelial cell growth medium from Sigma Aldrich, Lyon, France). Cells were routinely grown on 25 cm^2 flasks. For anti-proliferative assay, cells were detached from flasks using a trypsin-EDTA solution (from Thermofisher, Illkirch-Graffenstaden, France). After counting using a Malassez chamber, cells were diluted in appropriate culture media and seeded into 96-well cell culture plates (Greiner bio-one, Paris, France) at approximately 6000 cells/well. Cells were then treated with increasing concentration of conjugates diluted in appropriate medium. Doxorubicin was used as positive control. […] Briefly, after exposure to increasing concentrations of conjugates or doxorubicin for 48 h, cell viability was measured using the standard MTT or resazurin assay. For the MTT assay, the supernatant was discarded and 50 µL of 0.5 mg/mL MTT dye was then added to each well and plates were further incubated for 4 h at 37 °C. The MTT was aspirated and 100 µL of DMSO was then added to each well. The extent of MTT reduction to formazan in cells was calculated by measuring the absorbance at 540 nm, using a spectrophotometer (Spectra Max plus, Molecular Devices, CA, USA). For the resazurin assay, the supernatant was discarded and 100 µL of resazurin solution (from Sigma Aldrich, Lyon, France) was added to each well. After 4 h of incubation at 37 °C, fluorescence associated to resazurin biotransformation by live cells was measured using spectrofluorometer (excitation 530 nm/emission 590 nm). […]

HeLa cells [4] = assay: Atomic force microscopy of HeLa cells; assay type: cell-based, human; conditions: 20 µg/mL, 24 h
Experimental: HeLa cells were grown in Dulbecco’s modified eagle medium (DMEM) supplemented with 10% fetal bovine serum. After 70–80% confluency was achieved, cells were treated with conjugate 4 at 20 µg/mL and incubated for 24 h at 37 °C in a 5% CO2 incubator. The next day, these cells were visualized using a microscope. In the untreated control, cells were healthy and attached, therefore, the cells were trypsinized to detach the cells from the wells, and then collected in a sterile Eppendorf tube. In conjugate 4 treated wells, cells were dead and detached. These dead cells were freely floating and therefore the cells were collected without using the trypsinization process in an Eppendorf tube. These cells collected in Eppendorf tubes were washed twice with sterile distilled water and then 10 µL of suspension was deposited into mica chips coated with 0.01% poly-L-lysine, to allow the cells attachment. This cell suspension was then dried at room temperature. Soon after, these mica chips were inserted inside an Agilent Technologies 5500 microscope and the chips were scanned at tapping mode with a silicon nitride cantilever. After finding cells in the chips, these cells were further scanned under a higher magnification. Atomic force microscopy (AFM) topography images were obtained, and we processed them in pseudo color images to differentiate the images according to the height. […]

[5] = tested on: human breast cancer cells MDA-MB-231; assay: Anti-proliferative assay, MDA-MB-231; assay type: cell-based
Experimental: Cells were routinely grown on 25 cm^2 flasks. […] Doxorubicin was used as positive control. […] Experiment was performed in triplicate (n = 3).

[6] = tested on: HUVEC (human umbilical vein endothelial cells)
Experimental: as §1

[7] = tested on: mice normal 3T3 fibroblasts cells
Experimental: as §1

[8] = tested on: human breast cancer cells MCF-7
Experimental: as §1

[9] = tested on: human breast cancer cells MCF-7; assay: cells; conditions: MCF7, 48 h, read-out: IC50 (µg/mL) MCF-7
Experimental: as §1

[10] = tested on: HUVEC (human umbilical vein endothelial cells); assay: cells; conditions: 48 h, read-out: IC50 (µg/mL) HUVEC
Experimental: as §1

[11] = tested on: mice normal 3T3 fibroblasts cells; assay: cells; conditions: Mus musculus, Fibroblast, 48 h, read-out: IC50 (µg/mL) 3T3
Experimental: as §1

[12] = tested on: IMR-90 (normal human fibroblasts); assay: cells; conditions: IMR-90, 48 h, read-out: IC50 (µg/mL) IMR-90
Experimental: as §1

[13] = HeLa cells, MTT or resazurin, triplicate
[14] = HeLa cells, MTT or resazurin, read-out: IC50 ± SD (µM), proliferation of HeLa cells

`C[C@H](NC(=O)[C@H](Cc1ccccc1)NC(=O)[C@H](Cc1ccc2ccccc2c1)NC(=O)c1ccco1)C(N)=O` [Conjugate 2, 2-Fur^4-L-2-Nal^3-L-Phe^2-L-Ala^1-CONH2] was tested, and the “IC50 ± SD (µg/mL), proliferation of HeLa cells” value (from here on “IC50 ± SD (µg/mL), proliferation”) [1, 13] was 4.40 ± 0.20 µg/mL and the IC50 [1, 14] was 8.35 ± 0.37 µM.
In the case of `C[C@H](NC(=O)[C@H](C)NC(=O)[C@H](Cc1ccc2ccccc2c1)NC(=O)c1ccco1)C(N)=O` [Conjugate 3, 2-Fur^4-L-2-Nal^3-L-Ala^2-L-Ala^1-CONH2], the “IC50 ± SD (µg/mL), proliferation” value [1, 13] is reported as 21.1 ± 0.60 µg/mL and the IC50 [1, 14] is reported as 46.8 ± 1.33 µM.
In the case of `C[C@H](NC(=O)[C@H](Cc1ccc2ccccc2c1)NC(=O)c1ccco1)C(=O)N[C@@H](Cc1ccccc1)C(N)=O` [Conjugate 4, 2-Fur^4-L-2-Nal^3-L-Ala^2-L-Phe^1-CONH2], the “rhodamine 123 fluorescence (mitochondrial membrane potential, MMP)” value (HeLa cells [2]; HeLa, 40 µg/mL, 1 or 2 h treatment) is reported as “loss of mitochondrial membrane potential; also recorded: totally suppressed rhodamine fluorescence”, the “PI dye fluorescence (membrane permeabilization)” value (HeLa cells [2]; HeLa, 20, 30 and 40 µg/mL, 1 or 2 h) is reported as “increased” and the “antiproliferative activity on IMR-90 (in words)” value ([3]; IMR-90) is reported as “did not inhibit the proliferation”. For the same compound, the “IC50 (µg/mL) IMR-90” value ([3]; IMR-90, 48 h, mean ± SD of triplicates) was over 100 µg/mL, the “effect on HeLa cell membrane seen by AFM” value (HeLa cells [4]) was “membranolytic effect; also recorded: membranolytic affect” and the “antiproliferative activity on MDA-MB-231 (in words)” value [5] was “did not inhibit the proliferation”. For the same compound, the “IC50 (µg/mL) MDA-MB-231” value ([5]; MDA-MB-231, 48 h, mean ± SD of triplicates) was over 100 µg/mL, the “antiproliferative activity on MDA-MB-231 (in words)” value ([5]; listed as conjugate 4) was “inactive; also recorded: no effect” and the “antiproliferative activity on HUVEC (in words)” value [6] was “did not inhibit the proliferation”. For the same compound, the “IC50 (µg/mL) HUVEC” value ([6]; 48 h, mean ± SD of triplicates) was over 100 µg/mL, the “antiproliferative activity on 3T3 cells (in words)” value ([7]; 3T3) was “did not inhibit the proliferation” and the “IC50 (µg/mL) 3T3” value ([7]; 3T3, 48 h, mean ± SD of triplicates) was over 100 µg/mL. For the same compound, the “antiproliferative activity on MCF-7 (in words)” value ([8]; MCF-7) was “did not inhibit the proliferation”, the “IC50 (µg/mL) MCF-7” value ([8]; MCF-7, 48 h, mean ± SD of triplicates) was over 100 µg/mL and the IC50 [1] was 0.28 ± 0.09 µM. The “IC50 ± SD (µg/mL), proliferation” value [1] was 0.15 ± 0.05 µg/mL.
In the case of `C[C@H](NC(=O)[C@H](Cc1ccc2ccccc2c1)NC(=O)c1ccco1)C(=O)N[C@@H](Cc1ccccc1)C(=O)NCCCC[C@H](NC(=O)[C@H](Cc1ccccc1)NC(=O)[C@H](C)NC(=O)[C@H](Cc1ccc2ccccc2c1)NC(=O)c1ccco1)C(N)=O` [Conjugate 4b] (2Furoyl-[2Nal]AFK([Phe-Ala-2Nal-2Furoyl])-NH2), the “effect on MMP or membrane integrity of HeLa cells (rhodamine 123 / PI)” value (HeLa cells [2]; HeLa, data not shown) is reported as “do not affect MMP or the membrane integrity”, the “antiproliferative activity against HeLa cells (in words)” value ([1]; HeLa cells) is reported as “inactive” and the “IC50 ± SD (µg/mL), proliferation” value [1, 13] is reported as over 100 µg/mL.
`C[C@H](NC(=O)[C@H](Cc1ccc2ccccc2c1)NC(=O)[C@H](Cc1ccc2ccccc2c1)NC(=O)c1ccco1)C(N)=O` [Conjugate 5, 2-Fur^4-L-2-Nal^3-L-2-Nal^2-L-Ala^1-CONH2] was tested, and the “IC50 ± SD (µg/mL), proliferation” value [1, 13] was 2.59 ± 0.30 µg/mL and the IC50 [1, 14] was 4.49 ± 0.52 µM.
In the case of `C[C@H](NC(=O)[C@H](Cc1ccc2ccccc2c1)NC(=O)[C@H](Cc1ccccc1)NC(=O)c1ccco1)C(N)=O` [Conjugate 6, 2-Fur^4-L-Phe^3-L-2-Nal^2-L-Ala^1-CONH2], the “IC50 ± SD (µg/mL), proliferation” value [1, 13] is reported as 10.4 ± 0.10 µg/mL and the IC50 [1, 14] is reported as 19.74 ± 0.18 µM.
`C[C@H](NC(=O)c1ccco1)C(=O)N[C@@H](Cc1ccc2ccccc2c1)C(=O)N[C@@H](Cc1ccccc1)C(N)=O` [Conjugate 7, 2-Fur^4-L-Ala^3-L-2-Nal^2-L-Phe^1-CONH2] was tested, and the “IC50 ± SD (µg/mL), proliferation” value [1, 13] was over 100 µg/mL and the IC50 [1, 14] was over 100 µM.
In the case of `C[C@H](NC(=O)c1ccco1)C(=O)N[C@@H](Cc1ccccc1)C(=O)N[C@@H](Cc1ccc2ccccc2c1)C(N)=O` [Conjugate 8, 2-Fur^4-L-Ala^3-L-Phe^2-L-2-Nal^1-CONH2], the “IC50 ± SD (µg/mL), proliferation” value [1, 13] is reported as 29.1 ± 2.8 µg/mL and the IC50 [1, 14] is reported as 55.3 ± 5.31 µM.
In the case of `C[C@H](NC(=O)[C@H](Cc1ccc(O)cc1)NC(=O)[C@H](Cc1ccc2ccccc2c1)NC(=O)c1ccco1)C(N)=O` [Conjugate 9, 2-Fur^4-L-2-Nal^3-L-Tyr^2-L-Ala^1-CONH2], the “IC50 ± SD (µg/mL), proliferation” value [1, 13] is reported as 19.2 ± 3.2 µg/mL and the IC50 [1, 14] is reported as 35.4 ± 5.89 µM.
With `C[C@H](NC(=O)[C@@H](NC(=O)[C@H](Cc1ccc2ccccc2c1)NC(=O)c1ccco1)c1ccccc1)C(N)=O` [Conjugate 10, 2-Fur^4-L-2-Nal^3-L-Phg^2-L-Ala^1-CONH2] the “IC50 ± SD (µg/mL), proliferation” value [1, 13] was 4.70 ± 0.60 µg/mL and the IC50 [1, 14] was 9.16 ± 1.17 µM.
With `COc1cccc2c1C(=O)c1c(O)c3c(c(O)c1C2=O)C[C@@](O)(C(=O)CO)C[C@@H]3O[C@H]1C[C@H](N)[C@H](O)[C@H](C)O1` [Doxorubicin] the IC50 [9] was 0.01 ± 0.005 µg/mL (≈ 0.0184 µM), the IC50 [10] was 0.02 ± 0.005 µg/mL (≈ 0.0368 µM) and the IC50 ([5]; Homo sapiens, MDA-MB-231, 48 h, mean ± SD of triplicates) was 0.21 ± 0.03 µg/mL (≈ 0.386 µM). It also gave an IC50 [11] of under 1 µg/mL, an IC50 [12] of 0.06 ± 0.01 µg/mL (≈ 0.11 µM) and an IC50 ([1]; Homo sapiens, HeLa cells, MTT or resazurin, triplicate, read-out: IC50 ± SD (µg/mL), proliferation of HeLa cells) of 3.09 ± 0.16 µg/mL.
